Test results taken from patent US20240398697A1, “Injectable Formulations” (The University of Liverpool, priority 2021, published 2024).
Like-named read-outs stand apart in the source and are kept apart here.

What was measured:
[1] = Terminal half-life of conventional aqueous formulations injected intramuscularly; parameters: species or system adult male Wistar rats; conditions: male, Wistar, rat, in vivo, im
Excerpt: The foregoing experiments have shown that solid compositions comprising microparticles of glecaprevir and/or pibrentasvir may be formed through combination with certain first and second excipients. […] The solid compositions have also been reformulated into implantable rods, and microneedle arrays. Any of the solid compositions, aqueous dispersions, implantable rods, and microneedle arrays are expected to be therapeutically useful based on the known therapeutic uses of glecaprevir and pibrentasvir and the well-tolerated nature of the first and second excipients used. In addition, the form of the solid composition, aqueous dispersion, implantable rod, and microneedle array are expected to provide enhanced pharmacokinetic properties and therapeutic benefits when compared to conventional glecaprevir and pibrentasvir orally-dosed formulations. […] In particular, the formulations comprising microparticles of glecaprevir and/or pibrentasvir as described herein are expected to greatly improve the terminal half-life of the glecaprevir and/or pibrentasvir in vivo as compared to conventional aqueous formulations in which the glecaprevir and/or pibrentasvir are solubilised through addition of DMSO, when the formulations are delivered as intramuscular and/or subcutaneous injections.

[2] = In vivo plasma concentration after microneedle, intramuscular and intravenous administration (Example 22); parameters: species or system Female Sprague-Dawley rats; conditions: 5 mg/kg IV in DMSO/PEG 400/cyclodextrin; monitored 48 hour
Procedure: Animals were separated into three cohorts; each was comprised of 6 rats. Every 3 rats were housed in a different cage. Each rat of the first cohort (rats 1-6) received four microneedle arrays with a total dose of 16 mg (8 mg of glecaprevir and 8 mg of pibrentasvir). The second cohort (rats 7-12) received intramuscular injections of glecaprevir and pibrentasvir. For each rat, 37.5 mg of the glecaprevir30/pibrentasvir30/[…]10 formulation was dispersed in 300 μL of sterile water, then 150 μL of the solution was injected into each thigh of the rat. The dose given to each rat was approximately […]. The final cohort (rats 13-18) received 5 mg/kg of glecaprevir and pibrentasvir given as IV injections. The IV formulations were prepared by dissolving each drug in 5% v/v DMSO, 10% v/v PEG 400 in water diluted with 20% v/v hydroxy-B-cyclodextrin in water. To minimise the interference of hair in application of the microneedle arrays, the dorsal hair of the rats from the first cohort (rats 1-6) was removed prior to the experiment. The bulk hair was shaved using an electric hair clipper and the remaining hair residuals were removed using depilatory hair removal cream. Rats were then left for a 24 hour period to allow the skin to recover and to ensure complete restoration of skin barrier function before affixing the microneedle arrays. […]

[3] = Ex vivo skin deposition, modified Franz diffusion cell; assay type: in vitro ADME
Procedure: Ex vivo skin deposition experiments were carried out utilising a modified Franz diffusion cell. Full thickness skin was collected and excised within 24 hours of birth. On the day of the experiment, the skin was first pre-equilibrated in PBS at pH 7.4 for 30 minutes until totally thawed and then carefully shaved using a razor. It was then cyanoacrylate-glued to the donor compartment of the Franz diffusion cells to ensure its adhesion to the set up during the microneedle insertion and throughout the experiment. Microneedle arrays were applied to the skin using firm thumb pressure for 30 seconds. A stainless-steel cylinder (diameter 11 mm, mass 11.5 g) was put on the top of each microneedle array to hold them in place throughout the experiment. The receiver compartment was filled with 12 mL of 1% w/v SLS in PBS (pH 7.4). The donor compartment was clamped on top of the receiver compartment and wrapped with Parafilm® M to prevent solvent evaporation. Samples of 200 μL of the receiver compartment were taken at predefined time points of 0.5, 1, 1.5, 2, 3, 4, 6, 10, and 24 hours and was replaced with the fresh release medium. At 24 hours, the Franz cells were disassembled, the skin surface dabbed clean to remove surface drug, and glecaprevir and pibrentasvir were extracted from skins. Cumulative amounts of glecaprevir and pibrentasvir delivered from each formulation to both skin and receiver compartments were also determined. To extract the drug from the skin, skin samples collected at 24 hours were cut into small pieces, where 0.5 ml of water was added to each sample. They were then homogenised for 15 minutes using a Tissue Lyser LT. Subsequently, 1 mL of methanol was added, and samples were homogenised again for another 15 minutes. Then they were transferred to the tubes followed by adding 3.5 mL of methanol. After a 30-min sonication, 100 μL of the samples were diluted to 1 mL by PBS buffer. The samples were vortexed and centrifuged, then analysed by HPLC.

half-life ([1]; conventional aqueous formulation (solubilised through addition of DMSO), injected intramuscularly, read-out: terminal half-life (converted)) | deposited into the skin ([3]; from microneedle arrays, over 24 h) | delivered to the receiver compartment of the Franz diffusion cells ([3]; from microneedle arrays, over 24 h, receiver 1% w/v SLS in PBS pH 7.4) | total amount delivered to the skin and receiver compartment ([3]; from microneedle arrays, over 24 hours) | total amount delivered as share of drug initially present in the microneedle arrays ([3]; over 24 hours) | half-life [1] | delivered to the receiver compartment of the Franz diffusion cells ([3]; 24 h, pH 7.4) | deposited into the skin ([3]; 24 h, pH 7.4) | total amount delivered as share of drug initially present in the microneedle arrays ([3]; 24 h, pH 7.4) | total amount delivered to the skin and receiver compartment ([3]; 24 h, pH 7.4) | Structure (SMILES) | plasma concentration after intravenous (IV) administration [2]
4 h | 285.2 ± 51.3 µg | 203.9 ± 41.3 µg | 489.1 ± 68.6 µg | 25.1±3.5% |  |  |  |  |  | CC(C)(C)[C@@H]1NC(=O)O[C@@H]2CCC[C@H]2OC/C=C/C(F)(F)c2nc3ccccc3nc2O[C@@H]2C[C@@H](C(=O)N[C@]3(C(=O)NS(=O)(=O)C4(C)CC4)C[C@H]3C(F)F)N(C2)C1=O [glecaprevir, Glecaprevir] | subsided quickly within the 48 hour period
 |  |  |  |  | 10 h | 115.2 ± 29 µg | 304 ± 45.7 µg | 23.4±3.2% | 419.2 ± 56.6 µg | COC(=O)N[C@H](C(=O)N1CCC[C@H]1c1nc2cc([C@H]3CC[C@H](c4cc5nc([C@@H]6CCCN6C(=O)[C@@H](NC(=O)OC)[C@@H](C)OC)[nH]c5cc4F)N3c3cc(F)c(N4CCC(c5ccc(F)cc5)CC4)c(F)c3)c(F)cc2[nH]1)[C@@H](C)OC [pibrentasvir, Pibrentasvir] | 
